Assay results from patent US11236081B2, “Crystalline salts of corydalmine” (priority 2018, dated 2022).
Where two headings read alike, the source gives them in different places.

How the values were obtained:
[1] = Pharmacokinetic study: plasma concentration and plasma PK parameters after IV/PO dosing (LC-MS/MS, WinNonlin); type: in vivo, Male SD Rat; conditions: male, rat, plasma, male SD rat, plasma; for half-life: read-out: T1/2, Mean (converted)
Description: Pharmacokinetic and Brain Penetration Study
Dose formulation processing during dosing: The dose formulations will be kept at room temperature.
Concentrations of Test Article in the plasma samples will be analyzed using a LC-MS/MS method.
WinNonlin (Phoenix™, version 6.1) or other similar software will be used for pharmacokinetic calculations. The following pharmacokinetic parameters will be calculated, whenever possible from the plasma concentration versus time data:
IV administration: T1/2, C0, AUClast, AUCinf, MRTinf, Cl, Vss, Number of Points for Regression.
PO administration: T1/2, Cmax, Tmax, MRTinf, AUCinf, AUClast, F %, Number of Points for Regression.
The pharmacokinetic data will be described using descriptive statistics such as mean, standard deviation.

[2] = Solubility studies in water at 2 hours; type: physicochemical
[3] = Acid pKa of the free base; type: physicochemical
[4] = Sprague-Dawley, iv, 3 mg/kg, IV 3 mg/kg, individual rats, read-out: concentration in plasma
[5] = Sprague-Dawley, iv, 3 mg/kg, IV 3 mg/kg, mean n=3, read-out: concentration in plasma, Mean
[6] = Sprague-Dawley, po, 10 mg/kg, PO 10 mg/kg (equal to freebase), mean n=3, vehicle 20% HP-β-CD in water (POA, freebase) or water (salts), read-out: concentration in plasma, Mean
[7] = Sprague-Dawley, po, 10 mg/kg, PO 10 mg/kg (equal to freebase), individual rats, vehicle 20% HP-β-CD in water (POA, freebase) or water (salts), read-out: concentration in plasma

SMILES: COc1cc2c(cc1OC)[C@@H]1Cc3ccc(O)c(OC)c3CN1CC2 [Compound (1), l-corydalmine]
- AUC(0-inf) ([1]; SD, iv, 3 mg/kg, IV 3 mg/kg, individual rats, read-out: AUCInf): 950 ng·h/mL
- AUC(0-t) ([1]; SD, iv, 3 mg/kg, IV 3 mg/kg, individual rats, read-out: AUClast): 937 ng·h/mL
- MRT inf ([1]; SD, iv, 3 mg/kg, IV 3 mg/kg, individual rats, read-out: MRTInf_obs): 1.09 h
- AUC(0-inf) ([1]; SD, iv, 3 mg/kg, IV 3 mg/kg, mean n=3, read-out: AUCInf, Mean): 1020 ng·h/mL
- AUC(0-t) ([1]; SD, iv, 3 mg/kg, IV 3 mg/kg, mean n=3, read-out: AUClast, Mean): 1000 ng·h/mL
- MRT inf ([1]; SD, iv, 3 mg/kg, IV 3 mg/kg, mean n=3, read-out: MRTInf_obs, Mean): 1.23 h
- AUC(0-inf) ([1]; SD, po, 10 mg/kg, PO 10 mg/kg (equal to freebase), individual rats, vehicle 20% HP-β-CD in water (POA, freebase) or water (salts), read-out: AUCInf): 1490 ng·h/mL
- AUC(0-t) ([1]; SD, po, 10 mg/kg, PO 10 mg/kg (equal to freebase), individual rats, vehicle 20% HP-β-CD in water (POA, freebase) or water (salts), read-out: AUClast): 615 ng·h/mL
- Tmax ([1]; SD, po, 10 mg/kg, PO 10 mg/kg (equal to freebase), individual rats, vehicle 20% HP-β-CD in water (POA, freebase) or water (salts), read-out: Tmax): 0.5 h
- AUC(0-inf) ([1]; SD, po, 10 mg/kg, PO 10 mg/kg (equal to freebase), mean n=3, vehicle 20% HP-β-CD in water (POA, freebase) or water (salts), read-out: AUCInf, Mean): 1080 ng·h/mL
- AUC(0-t) ([1]; SD, po, 10 mg/kg, PO 10 mg/kg (equal to freebase), mean n=3, vehicle 20% HP-β-CD in water (POA, freebase) or water (salts), read-out: AUClast, Mean): 788 ng·h/mL
- Cmax ([1]; SD, po, 10 mg/kg, PO 10 mg/kg (equal to freebase), mean n=3, vehicle 20% HP-β-CD in water (POA, freebase) or water (salts), read-out: Cmax, Mean): 202 ng/mL
- MRT inf ([1]; SD, po, 10 mg/kg, PO 10 mg/kg (equal to freebase), mean n=3, vehicle 20% HP-β-CD in water (POA, freebase) or water (salts), read-out: MRTInf_obs, Mean): 7.84 h
- half-life ([1]; SD, po, 10 mg/kg, PO 10 mg/kg (equal to freebase), mean n=3, vehicle 20% HP-β-CD in water (POA, freebase) or water (salts)): 4.9 h
- Tmax ([1]; SD, po, 10 mg/kg, PO 10 mg/kg (equal to freebase), mean n=3, vehicle 20% HP-β-CD in water (POA, freebase) or water (salts), read-out: Tmax, Mean): 0.417 h
- concentration at 0.083 h [1, 4]: 1420 ng/mL
- concentration at 0.083 h [1, 5]: 1480 ng/mL
- concentration at 0.25 h [1, 4]: 974 ng/mL
- concentration at 0.25 h [1, 5]: 976 ng/mL
- concentration at 0.5 h [1, 4]: 401 ng/mL
- concentration at 0.5 h [1, 5]: 478 ng/mL
- concentration at 1 h [1, 4]: 192 ng/mL
- concentration at 1 h [1, 5]: 191 ng/mL
- concentration at 2 h [1, 4]: 63.3 ng/mL
- concentration at 2 h [1, 5]: 68.4 ng/mL
- concentration at 4 h [1, 5]: 30.6 ng/mL
- concentration at 8 h [1, 5]: 6.38 ng/mL
- concentration at 24 h [1, 4]: 0.5 ng/mL
- C0 ([1]; Sprague-Dawley, iv, 3 mg/kg, IV 3 mg/kg, individual rats, read-out: C0): 1710 ng/mL
- half-life ([1]; Sprague-Dawley, iv, 3 mg/kg, IV 3 mg/kg, mean n=3): 2.73 h
- concentration at 0.25 h [1, 6]: 191 ng/mL
- concentration at 0.5 h [1, 6]: 197 ng/mL
- concentration at 1 h [1, 7]: 109 ng/mL
- concentration at 1 h [1, 6]: 125 ng/mL
- concentration at 2 h [1, 7]: 75.1 ng/mL
- concentration at 2 h [1, 6]: 66.7 ng/mL
- concentration at 4 h [1, 7]: 66.3 ng/mL
- concentration at 4 h [1, 6]: 51.2 ng/mL
- concentration at 8 h [1, 7]: 68.7 ng/mL
- concentration at 8 h [1, 6]: 49.9 ng/mL
- concentration at 24 h ([1]; Sprague-Dawley, po, 10 mg/kg, PO 10 mg/kg, mean (one rat BLOQ), vehicle 20% HP-β-CD in water (POA), read-out: concentration in plasma, Mean): 0.574 ng/mL
- solubility at 2 h [2]: < 1000 µg/mL
- pKa [3]: ~5.2
